Reference: patent US11834453B2, “Substituted pyrimido[5,4-d]pyrimidines as HER2 inhibitors” (Array BioPharma Inc., priority 2020, dated 2023)
Read-outs that look alike come from different tables or passages of the source.

How the values were obtained:
[1] = biological target: ErbB2 insYVMA (HER2-YVMA, SEQ ID NO: 2) (Homo sapiens, UniProt P04626, INS775YVMA/P1170A); assay: biochemical; settings: ErbB2 insYVMA enzyme assay
[2] = biological target: MDR1 (P-gp) (Homo sapiens (Human), UniProt P08183); assay: MDR1 transfected LLC-PK1 permeability/efflux, Assay 6; settings: pig
[3] = biological target: ErbB2 with Exon 20 YVMA insertion (HER2-YVMA) (Homo sapiens (Human), UniProt P04626, INS775YVMA); assay: Cellular phosphorylation assay, constitutive ErbB2 phosphorylation (Y1196) in engineered NIH 3T3 cells, Assay 4; type: cell-based
Summary of the method: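 In-cell Western in NIH 3T3 cells carrying ErbB2 exon 20 YVMA insertion, with no ligand stimulation. One hour compound exposure at 37 °C before fixation and anti-pY1196 plus GAPDH staining with dual-wavelength fluorescence. IC50 derived after GAPDH normalization.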

[4] = biological target: EGFR wild type (EGFR WT) (Homo sapiens (Human), UniProt P00533); assay: Cellular phosphorylation assay, EGF-stimulated EGFR phosphorylation in engineered NIH 3T3 cells, Phospho-EGFR DuoSet IC ELISA, Assay 5; type: cell-based
Summary of the method: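 Phospho-EGFR ELISA on lysates of engineered NIH 3T3 EGFR WT cells, IC50 derived from concentration curves. Cells plated at 20,000/well overnight, given compound dilutions 1 h at 37 °C, then rEGF 100 ng/ml for a further 10 min before lysis.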

[5] = biological target: EGFR (Homo sapiens (Human), UniProt P00533); assay: ErbB enzyme assay (CisBio HTRF KinEASE-TK), Assay 3; type: biochemical
Summary of the method: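 Using a time-resolved FRET read-out, tyrosine phosphorylation of 250 nM biotin substrate at 1 mM ATP (pH 7.4, 10 mM MgCl2, 2% DMSO, 22 °C, 30 min) was quantified against DMSO and pre-quenched controls; IC50 taken at 50% of control.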

[6] = biological target: ErbB2 WT (Homo sapiens (Human), UniProt P04626); assay: ErbB enzyme assay (CisBio HTRF KinEASE-TK), Assay 2; type: biochemical
Summary of the method: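 Readout is HTRF KinEASE-TK, using Sa-XL665 and cryptate antibody for 1 h at 22 °C, as percent of control between DMSO-only (100) and pre-quenched (0) reactions. The kinase reaction runs 30 min at 22 °C with 1 mM ATP and 250 nM biotinylated TK substrate, in HEPES pH 7.4 with MgCl2 and 2% DMSO.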

[7] = biological target: BCRP (Homo sapiens (Human), UniProt Q9UNQ0); assay: BCRP transfected MDCKII canine Mdr1 knockout permeability/efflux, Assay 9; settings: dog, Assay 9 Pe Ratio, efflux ratio Papp(B-A)/Papp(A-B), BCRP transfected MDCKII canine Mdr1 knockout
Protocol: BCRP transfected MDCKII cells (Assay 8) and BCRP transfected MDCKII canine Mdr1 knockout cells (Assay 9) were cultured and plated according to manufacturer's recommendations.
Both positive and negative controls were used to assess functionality of P-gp or BCRP efflux in the assays. Stock solutions for assay controls and the test article were prepared in DMSO for final test concentration of 1 μM. Final organic concentration in the assay was 1%. All dosing solutions contained 10 μM lucifer yellow to monitor MDCKII cell monolayer integrity.
For the apical to basolateral determination (A to B), 75 μL of the test article in transport buffer were added to the apical side of the individual transwells and 250 μL of basolateral media, without compound or lucifer yellow, were added to each well. For the basolateral to apical determination (B to A), 250 μL of test article in transport buffer were added to each well and 75 μL transport buffer, without compound or lucifer yellow, were added to each transwell. All tests were performed in triplicate, and each compound was tested for both apical to basolateral and basolateral to apical transport. The plates were incubated for 2 hours on a Lab-Line Instruments Titer Orbital Shaker (VWR, West Chester, PA) at 50 rpm and 37° C. with 5% CO2. All culture plates were removed from the incubator, 50 μL of media were removed from the apical and basolateral portion of each well, and added to 150 μL of 1 μM labetalol in 2:1 acetonitrile (ACN): H2O, v/v.
The plates were read using a Molecular Devices (Sunnyvale, CA) Gemini Fluorometer to evaluate the lucifer yellow concentrations at excitation/emission wavelengths of 425/535 nm. […] The plates were sealed, and the contents of each well analyzed by LC MS/MS. The compound concentrations were determined from the ratio of the peak areas of the compound to the internal standard (labetalol) in comparison to the dosing solution.
A MDS Sciex API 4000 (Applied Biosystems, Foster City, CA) mass spectrometer was used for detection of the analytes in the ion spray positive mode. Analyte responses were measured by multiple reaction monitoring (“MRM”) of transitions unique to each compound (the protonated precursor ion and selected product ions for each test article and m/z 329 to m/z 162 for labetalol, the internal standard.
The total run time, including re-equilibration, for a single injection was 1.2 minutes. […] The total run time, including re-equilibration, for a single injection was 0.61 minutes.
An efflux ratio is calculated from the mean apical to basolateral (A-B) Papp data and basolateral to apical (B-A) Papp data: Efflux ratio=Papp(B−A)/Papp(A−B)

[8] = LLC-PK1, Assay 6 Pe Ratio, efflux ratio Papp(B-A)/Papp(A-B), MDR1 transfected LLC-PK1

MDR1 (P-gp), sequence (P08183 whole entry): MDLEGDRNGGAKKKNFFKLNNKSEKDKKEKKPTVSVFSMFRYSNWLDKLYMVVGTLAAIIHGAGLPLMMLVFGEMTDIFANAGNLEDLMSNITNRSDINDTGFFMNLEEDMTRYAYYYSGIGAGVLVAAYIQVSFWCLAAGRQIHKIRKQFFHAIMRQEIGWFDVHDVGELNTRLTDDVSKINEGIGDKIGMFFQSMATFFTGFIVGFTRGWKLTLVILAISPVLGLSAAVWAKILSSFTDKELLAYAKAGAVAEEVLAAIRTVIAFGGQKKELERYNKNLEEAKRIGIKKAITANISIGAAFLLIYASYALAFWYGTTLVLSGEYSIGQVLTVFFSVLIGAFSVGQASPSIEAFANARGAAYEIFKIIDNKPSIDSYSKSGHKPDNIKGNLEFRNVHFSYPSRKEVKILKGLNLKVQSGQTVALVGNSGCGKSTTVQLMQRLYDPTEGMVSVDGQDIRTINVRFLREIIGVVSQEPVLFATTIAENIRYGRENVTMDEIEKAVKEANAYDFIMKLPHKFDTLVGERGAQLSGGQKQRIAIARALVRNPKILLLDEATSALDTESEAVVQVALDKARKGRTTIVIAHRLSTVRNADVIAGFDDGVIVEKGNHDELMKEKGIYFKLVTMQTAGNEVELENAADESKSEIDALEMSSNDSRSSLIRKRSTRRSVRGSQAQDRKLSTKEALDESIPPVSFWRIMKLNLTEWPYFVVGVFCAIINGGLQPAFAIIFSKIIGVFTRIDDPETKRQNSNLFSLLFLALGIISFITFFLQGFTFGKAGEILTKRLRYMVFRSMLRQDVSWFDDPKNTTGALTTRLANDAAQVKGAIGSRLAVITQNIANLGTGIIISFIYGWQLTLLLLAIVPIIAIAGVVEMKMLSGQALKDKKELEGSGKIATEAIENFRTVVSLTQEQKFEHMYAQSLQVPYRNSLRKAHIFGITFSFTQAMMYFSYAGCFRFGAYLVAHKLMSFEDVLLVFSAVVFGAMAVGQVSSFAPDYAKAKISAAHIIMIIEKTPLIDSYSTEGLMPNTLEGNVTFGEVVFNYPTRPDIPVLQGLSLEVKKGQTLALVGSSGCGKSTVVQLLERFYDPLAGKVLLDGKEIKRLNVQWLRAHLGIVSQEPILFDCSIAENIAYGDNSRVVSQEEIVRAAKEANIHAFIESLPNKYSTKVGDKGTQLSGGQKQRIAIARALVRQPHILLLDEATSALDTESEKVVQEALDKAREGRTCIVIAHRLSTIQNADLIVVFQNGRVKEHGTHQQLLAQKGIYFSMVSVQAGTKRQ
BCRP, sequence (Q9UNQ0 whole entry): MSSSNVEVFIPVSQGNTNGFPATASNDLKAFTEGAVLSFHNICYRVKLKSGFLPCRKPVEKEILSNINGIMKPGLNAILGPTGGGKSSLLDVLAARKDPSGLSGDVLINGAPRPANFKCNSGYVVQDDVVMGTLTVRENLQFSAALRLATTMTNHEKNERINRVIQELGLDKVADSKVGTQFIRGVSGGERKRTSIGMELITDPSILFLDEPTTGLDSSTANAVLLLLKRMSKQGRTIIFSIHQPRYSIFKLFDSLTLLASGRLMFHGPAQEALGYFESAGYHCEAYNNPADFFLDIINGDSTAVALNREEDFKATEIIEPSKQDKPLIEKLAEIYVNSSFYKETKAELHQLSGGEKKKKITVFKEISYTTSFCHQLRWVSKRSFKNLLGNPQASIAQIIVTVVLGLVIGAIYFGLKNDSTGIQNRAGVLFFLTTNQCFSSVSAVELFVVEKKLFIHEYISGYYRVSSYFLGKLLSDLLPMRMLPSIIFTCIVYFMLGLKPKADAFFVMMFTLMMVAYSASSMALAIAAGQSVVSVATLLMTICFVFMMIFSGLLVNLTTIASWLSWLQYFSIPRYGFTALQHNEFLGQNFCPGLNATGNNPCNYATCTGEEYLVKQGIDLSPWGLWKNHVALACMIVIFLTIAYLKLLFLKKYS
ErbB2 insYVMA (HER2-YVMA, SEQ ID NO: 2), sequence (P04626 with tags, fused parts or gaps INS775YVMA/P1170A limits assumed): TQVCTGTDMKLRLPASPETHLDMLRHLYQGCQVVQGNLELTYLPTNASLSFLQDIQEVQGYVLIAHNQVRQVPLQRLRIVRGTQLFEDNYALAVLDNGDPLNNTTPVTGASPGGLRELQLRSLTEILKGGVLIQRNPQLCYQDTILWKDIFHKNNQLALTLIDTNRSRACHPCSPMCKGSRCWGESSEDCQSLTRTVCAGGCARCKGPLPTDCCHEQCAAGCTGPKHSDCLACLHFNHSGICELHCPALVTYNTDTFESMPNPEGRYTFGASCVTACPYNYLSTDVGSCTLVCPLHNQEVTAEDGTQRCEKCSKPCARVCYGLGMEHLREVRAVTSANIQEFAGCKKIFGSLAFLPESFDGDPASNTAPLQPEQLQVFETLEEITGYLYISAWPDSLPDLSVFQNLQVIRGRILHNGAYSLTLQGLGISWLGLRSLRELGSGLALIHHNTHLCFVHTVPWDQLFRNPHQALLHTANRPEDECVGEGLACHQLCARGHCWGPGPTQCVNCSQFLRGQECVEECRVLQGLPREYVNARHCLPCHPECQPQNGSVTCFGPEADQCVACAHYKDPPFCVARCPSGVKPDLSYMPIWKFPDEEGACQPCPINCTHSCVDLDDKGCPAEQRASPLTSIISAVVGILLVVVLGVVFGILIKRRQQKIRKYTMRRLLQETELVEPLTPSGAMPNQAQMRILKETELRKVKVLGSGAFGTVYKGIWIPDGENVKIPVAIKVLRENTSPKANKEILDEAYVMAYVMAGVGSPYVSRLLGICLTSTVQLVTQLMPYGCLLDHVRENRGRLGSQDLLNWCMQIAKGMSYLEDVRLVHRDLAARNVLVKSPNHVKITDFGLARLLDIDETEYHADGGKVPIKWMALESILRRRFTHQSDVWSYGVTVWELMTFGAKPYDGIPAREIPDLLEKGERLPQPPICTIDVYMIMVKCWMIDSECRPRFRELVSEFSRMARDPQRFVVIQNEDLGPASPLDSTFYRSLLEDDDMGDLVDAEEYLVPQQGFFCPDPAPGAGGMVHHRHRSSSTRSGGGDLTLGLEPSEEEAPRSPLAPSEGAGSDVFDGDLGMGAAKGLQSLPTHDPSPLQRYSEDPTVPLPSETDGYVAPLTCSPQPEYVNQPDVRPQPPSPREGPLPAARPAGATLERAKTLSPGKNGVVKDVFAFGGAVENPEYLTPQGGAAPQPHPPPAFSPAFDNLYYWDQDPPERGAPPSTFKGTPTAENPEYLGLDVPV
ErbB2 WT, sequence (P04626 23-1255): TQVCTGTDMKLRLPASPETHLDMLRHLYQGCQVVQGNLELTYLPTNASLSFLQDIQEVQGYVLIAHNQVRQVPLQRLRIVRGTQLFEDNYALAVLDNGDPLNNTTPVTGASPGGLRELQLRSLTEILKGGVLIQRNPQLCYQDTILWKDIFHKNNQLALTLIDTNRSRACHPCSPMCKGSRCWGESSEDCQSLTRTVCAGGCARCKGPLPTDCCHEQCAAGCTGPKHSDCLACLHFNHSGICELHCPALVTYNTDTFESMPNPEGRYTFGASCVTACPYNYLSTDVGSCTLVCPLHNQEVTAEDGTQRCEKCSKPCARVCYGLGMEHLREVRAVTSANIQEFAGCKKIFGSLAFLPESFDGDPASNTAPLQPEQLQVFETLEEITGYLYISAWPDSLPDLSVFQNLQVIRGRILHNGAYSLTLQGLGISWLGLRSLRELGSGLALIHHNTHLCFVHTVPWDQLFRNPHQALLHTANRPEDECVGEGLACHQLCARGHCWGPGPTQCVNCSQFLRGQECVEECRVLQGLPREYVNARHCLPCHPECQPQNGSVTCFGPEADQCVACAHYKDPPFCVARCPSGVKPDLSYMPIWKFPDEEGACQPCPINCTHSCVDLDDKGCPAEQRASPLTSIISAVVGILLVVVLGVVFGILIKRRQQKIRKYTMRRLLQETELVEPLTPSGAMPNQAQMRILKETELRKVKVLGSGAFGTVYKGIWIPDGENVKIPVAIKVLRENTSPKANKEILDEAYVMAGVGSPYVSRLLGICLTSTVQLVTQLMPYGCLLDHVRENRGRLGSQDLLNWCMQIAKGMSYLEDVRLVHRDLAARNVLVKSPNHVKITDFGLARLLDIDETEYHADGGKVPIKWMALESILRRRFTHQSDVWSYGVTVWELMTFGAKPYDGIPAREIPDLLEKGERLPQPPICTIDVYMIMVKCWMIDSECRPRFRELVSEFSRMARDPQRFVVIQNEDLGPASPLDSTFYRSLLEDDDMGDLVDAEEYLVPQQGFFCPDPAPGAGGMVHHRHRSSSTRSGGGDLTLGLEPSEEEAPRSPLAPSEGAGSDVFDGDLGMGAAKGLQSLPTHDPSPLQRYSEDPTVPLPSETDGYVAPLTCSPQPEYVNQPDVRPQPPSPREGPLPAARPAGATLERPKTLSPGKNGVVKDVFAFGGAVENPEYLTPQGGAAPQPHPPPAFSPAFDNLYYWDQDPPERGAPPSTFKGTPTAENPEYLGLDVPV

Row | SMILES | IC50 ([1]; read-out: Assay 1 IC50) [nM] | efflux ratio at 2 h, 1 μM [2, 8] | IC50 [3] [nM] | IC50 [4] [nM] | IC50 [5] [nM] | IC50 [6] [nM] | efflux ratio at 2 h, 1 μM [7] | IC50 ([1]; Assay 1 IC50 (nM)) [nM] | efflux ratio at 2 h, 1 μM ([2]; LLC-PK1)
1 | Cc1cc(Nc2ncnc3cnc(N4CC(C)(O)CO4)nc23)ccc1Oc1ccc2c(c1)ncn2C (centres unmarked) [Example 191, 4-methyl-2-(8-((3-methyl-4-((1-methyl-1H-benzo[d]imidazol-5-yl)oxy)phenyl)amino)pyrimido[5,4-d]pyrimidin-2-yl)isoxazolidin-4-ol] | 33 | 36.5 | 36.4 | ≥ 5000 | ≥ 10000 | – | – | – | –
2 | Cc1cc(Nc2ncnc3cnc(N(C)CC(C)(C)O)nc23)ccc1Oc1cc(F)c2c(c1)ncn2C [Example 203, 1-((8-((4-((7-fluoro-1-methyl-1H-benzo[d]imidazol-5-yl)oxy)-3-methylphenyl)amino)pyrimido[5,4-d]pyrimidin-2-yl)(methyl)amino)-2-methylpropan-2-ol] | 20.3 | – | 8.3 | ≥ 5000 | 4580 | 65.4 | 1.9 | – | –
3 | Cc1cc(Nc2ncnc3cnc(N4CCCO4)nc23)ccc1Oc1ccc2c(c1)ncn2C [Example 178, 6-(isoxazolidin-2-yl)-N-(3-methyl-4-((1-methyl-1H-benzo[d]imidazol-5-yl)oxy)phenyl)pyrimido[5,4-d]pyrimidin-4-amine] | 20.9 | 3.7 | 9.9 | ≥ 5000 | ≥ 10000 | – | – | – | –
4 | CC(=O)N1CCN(c2ncc3ncnc(Nc4ccc(Oc5ccc6c(c5)ncn6C)c(C)c4)c3n2)CC1 [Example 24, 1-(4-(8-((3-methyl-4-((1-methyl-1H-benzo[d]imidazol-5-yl)oxy)phenyl)amino)pyrimido[5,4-d]pyrimidin-2-yl)piperazin-1-yl)ethan-1-one] | 18.2 | 30 | 7.1 | ≥ 5000 | ≥ 10000 | 31.5 | – | – | –
5 | Cc1cc(Nc2ncnc3cnc(N4CC(C(C)(C)O)C4)nc23)ccc1Oc1ccc2c(c1)ncn2C [Example 118, 2-(1-(8-((3-methyl-4-((1-methyl-1H-benzo[d]imidazol-5-yl)oxy)phenyl)amino)pyrimido[5,4-d]pyrimidin-2-yl)azetidin-3-yl)propan-2-ol] | 54.2 | 7.4 | 39.8 | ≥ 5000 | ≥ 10000 | 88.7 | – | – | –
6 | CON1CCN(c2ncc3ncnc(Nc4ccc(Oc5ccc6c(c5)ncn6C)c(Cl)c4)c3n2)CC1.O=C(O)C(F)(F)F [Example 141, N-(3-chloro-4-((1-methyl-1H-benzo[d]imidazol-5-yl)oxy)phenyl)-6-(4-methoxypiperazin-1-yl)pyrimido[5,4-d]pyrimidin-4-amine 2,2,2-trifluoroacetate] | – | – | 17.1 | ≥ 5000 | 4440 | 25.9 | 1.4 | 23.2 | –
7 | Cc1cc(Nc2ncnc3cnc(O[C@H]4CCNC[C@H]4F)nc23)ccc1Oc1ccc2c(c1)ncn2C [Example 284] | 75.6 | 95.4 | 53.4 | ≥ 5000 | ≥ 10000 | 681 | – | – | –
8 | Cc1cc(Nc2ncnc3cnc(N4CC[C@@H](C)C4=O)nc23)ccc1Oc1ccc2c(c1)ncn2C [Example 51, (R)-3-methyl-1-(8-((3-methyl-4-((1-methyl-1H-benzo[d]imidazol-5-yl)oxy)phenyl)amino)pyrimido[5,4-d]pyrimidin-2-yl)pyrrolidin-2-one] | 41.1 | 4.4 | 52.1 | – | ≥ 10000 | 79.3 | – | – | –
9 | Cc1cc(Nc2ncnc3cnc(N4CCOC5CC54)nc23)ccc1Oc1ccc2c(c1)ncn2C (racemic) [Example 60, 6-(2-oxa-5-azabicyclo[4.1.0]heptan-5-yl)-N-(3-methyl-4-((1-methyl-1H-benzo[d]imidazol-5-yl)oxy)phenyl)pyrimido[5,4-d]pyrimidin-4-amine] | 19.4 | 2.6 | 8.5 | ≥ 5000 | 8860 | 27.6 | – | – | –
10 | Cc1cc(Nc2ncnc3cnc(N4C[C@H]5CCCN5C4=O)nc23)ccc1Oc1ccc2c(c1)ncn2C [Example 66, (R)-2-(8-((3-methyl-4-((1-methyl-1H-benzo[d]imidazol-5-yl)oxy)phenyl)amino)pyrimido[5,4-d]pyrimidin-2-yl)hexahydro-3H-pyrrolo[1,2-c]imidazol-3-one] | 53.9 | 11.6 | 41.4 | ≥ 5000 | ≥ 10000 | 180 | – | – | –
11 | Cc1cc(Nc2ncnc3cnc(N4CCN(C)[C@H](C)C4)nc23)ccc1Oc1ccc2c(c1)ncn2C [Example 281] | 23.8 | 2.1 | 26.6 | ≥ 5000 | ≥ 10000 | 84.2 | – | – | –
12 | COCCOC1CN(c2ncc3ncnc(Nc4ccc(Oc5ccc6c(c5)ncn6C)c(C)c4)c3n2)C1 [Example 240] | 41.3 | 2.9 | 66.5 | – | ≥ 10000 | 77.7 | – | – | –
13 | Cc1cc(Nc2ncnc3cnc(N(C)CC4(O)CCC4)nc23)ccc1Oc1ccc2c(c1)ncn2C [Example 164, 1-((methyl(8-((3-methyl-4-((1-methyl-1H-benzo[d]imidazol-5-yl)oxy)phenyl)amino)pyrimido[5,4-d]pyrimidin-2-yl)amino)methyl)cyclobutan-1-ol] | 28 | – | 9 | ≥ 5000 | ≥ 10000 | 52.3 | 2.2 | – | –
14 | Cc1cc(Nc2ncnc3cnc(N4CC5COC(C5)C4)nc23)ccc1Oc1ccc2c(c1)ncn2C (centres unmarked) [Example 67, 6-(6-oxa-3-azabicyclo[3.2.1]octan-3-yl)-N-(3-methyl-4-((1-methyl-1H-benzo[d]imidazol-5-yl)oxy)phenyl)pyrimido[5,4-d]pyrimidin-4-amine] | 15.1 | 2.1 | 86.7 | – | ≥ 10000 | 34.3 | – | – | –
15 | Cc1cc(Nc2ncnc3cnc(N4CCCC5(COC5)C4)nc23)ccc1Oc1ccc2c(c1)ncn2C [Example 45, N-(3-methyl-4-((1-methyl-1H-benzo[d]imidazol-5-yl)oxy)phenyl)-6-(2-oxa-6-azaspiro[3.5]nonan-6-yl)pyrimido[5,4-d]pyrimidin-4-amine] | 31 | – | 56.2 | – | 4740 | 25 | – | – | 2.2
16 | Cc1cc(Nc2ncnc3cnc(N4CC5CC(C4)O5)nc23)ccc1Oc1ccc2c(c1)ncn2C.O=C(O)C(F)(F)F [Example 69, 6-(6-oxa-3-azabicyclo[3.1.1]heptan-3-yl)-N-(3-methyl-4-((1-methyl-1H-benzo[d]imidazol-5-yl)oxy)phenyl)pyrimido[5,4-d]pyrimidin-4-amine 2,2,2-trifluoroacetate] | – | – | 35.8 | – | ≥ 10000 | 161 | – | 27.6 | 2.6
17 | Cc1cc(Nc2ncnc3cnc(NOCC(C)(C)O)nc23)ccc1Oc1ccc2c(c1)ncn2C [Example 217, 2-methyl-1-(((8-((3-methyl-4-((1-methyl-1H-benzo[d]imidazol-5-yl)oxy)phenyl)amino)pyrimido[5,4-d]pyrimidin-2-yl)amino)oxy)propan-2-ol] | 23.2 | 6 | 35.1 | ≥ 5000 | – | 53.3 | – | – | –
18 | Cc1cc(Nc2ncnc3cnc(N(C)CCO)nc23)ccc1Oc1ccc2c(c1)ncn2C [Example 208, 2-(methyl(8-((3-methyl-4-((1-methyl-1H-benzo[d]imidazol-5-yl)oxy)phenyl)amino)pyrimido[5,4-d]pyrimidin-2-yl)amino)ethan-1-ol] | 17.3 | 11.2 | 6 | ≥ 5000 | 3550 | – | – | – | –
19 | Cc1cc(Nc2ncnc3cnc(N(C)C[C@@H](C)O)nc23)ccc1Oc1ccc2c(c1)ncn2C [Example 189, (R)-1-(methyl(8-((3-methyl-4-((1-methyl-1H-benzo[d]imidazol-5-yl)oxy)phenyl)amino)pyrimido[5,4-d]pyrimidin-2-yl)amino)propan-2-ol] | 12.7 | 4.2 | 13.9 | ≥ 5000 | 6460 | – | – | – | –
